Experimental data from US20040023855A1, “Biologic modulations with nanoparticles” (priority 2002, published 2004).
Marks after values point to notes of the source that are not given here.

Legend:
[1] = test system: dog-kidney epithelial cell line MDCK II (Madin-Darby Canine Kidney); conditions: lactose-inhibitable, cited from earlier work
[2] = parameters: species or system nude mice; conditions: mouse, in vivo, im
[3] = test system: orthotopically implanted tumors derived from breast cancer cell line MDA-MB435; experiment: Orthotopic mouse model of human breast cancer; assay type: in vivo, nude mice
Procedure: The safety, plasma half-life, and efficacy of galectin-3C in an orthotopic mouse model of human breast cancer was evaluated. A recent feasibility study of the anticancer activity of recombinant human galectin-3 N-terminally truncated by exhaustive digestion with Clostridium histiolyticum collagenase type VII (Sigma; St. Louis, Mo.), (36, 75) in an orthotopic mouse model of metastatic breast cancer (22) produced promising results. The digestion produced a 143 amino acid residue polypeptide beginning with Gly-108. In treated animals the number of primary tumors that metastasized was less than controls by 3-fold (P=0.031), and the mean primary tumor volume of the treated animals was 61% less than the controls (P=0.009). The results provide compelling evidence that treatment with an N-terminally truncated form of galectin-3 could useful in treatment and prevention of cancer, especially metastatic cancer.
One example of the use in vivo of N-terminally truncated galectin-3 is as a potential therapeutic agent for breast cancer. It was determined that therapy with an N-terminally truncated form of galectin-3 is efficacious for inhibition of metastases. To this end, recombinant galectin-3 was produced and the N-terminally truncated galectin-3 was derived by collagenase enzyme digestion and affinity chromatography. Injected N-terminally truncated galectin-3 was detected by metabolic labeling with ^35S methionine prior to collagenase cleavage. […] Mice bearing orthotopically implanted tumors derived from breast cancer cell line MDA-MB435 were treated intramuscularly twice daily for 90 days with N-terminally truncated galectin-3 or a vehicle control. […] In a recent study at the end of the treatment period, the number of treated animals with primary tumors that metastasized was less than controls by 3-fold (P=0.031), and the mean primary tumor volume of the treated animals was 61% less than the controls (P=0.009). The results provide compelling evidence that treatment with an N-terminally truncated form of galectin-3 could useful in treatment and prevention of cancer, especially metastatic cancer. The truncated form of galectin-3 was efficacious in reducing metastases, and the tumor volumes and weights of primary tumors.

[4] = Maximum tolerated dose in nude mice; assay type: in vivo; conditions: without overt adverse effects
[5] = test system: Alva-41 prostate carcinoma cells; experiment: In vitro growth inhibition (cytotoxicity) by cisplatin nanoparticles; assay type: cell-based, human; conditions: at doses greater than 60 µg/ml
Procedure: FIG. 3 is a graph showing the in vitro cytotoxicity of nanoparticles comprising cisplatin and various cell recognition components for Alva-41, human tumor cells derived from a prostate carcinoma metastasis; and
Cisplatin was nanoencapsulated into the various candidate tumor-binding agents as described previously and nanoparticles were compared for growth inhibition in a metastatic variant of Alva-41 prostate carcinoma cells and Ca-9-22. Formulas were tested in duplicate in two separate experiments. Results are illustrated for the prostate cell line in FIG. 3. Referring to FIG. 3, PEX-MMP-l/Cisplatin refers to s50 nanoparticles comprising cisplatin and the Recombinant Pex binding domain of membrane-associated Matrix Metalloproteinase-1 (see Bello et. al, Cancer Research (2001) 61: 8730-36); Tenascin/Cisplatin refers to s50 nanoparticles having tenascin and cisplatin, FN-PHSCN/Cisplatin refers to nanoparticles comprising the FN-PHSCN fragment and cisplatin, galectin-3/cisplatin refers to s50 nanoparticles comprising recombinant N-terminally truncated galectin-3 and cisplatin, hyaluronan/cisplatin refers to s50 nanoparticles comprising hyaluronan and cisplatin, and naked cisplatin refers to the addition of free cisplatin to the cell medium. In these experiments cells were plated at 5,000 per well and followed for 72 hours. […]

[6] = target: Galectin-3 (Homo sapiens, UniProt P17931); conditions: relative affinity, lactose on galectin-3 given as 1; cited from earlier work
[7] = target: T1, Galectin-3C (Homo sapiens, UniProt P17931); conditions: relative affinity, same scale as galectin-3 column; cited from earlier work
T1 construct: The digestion produced a 143 amino acid residue polypeptide beginning with Gly-108

[8] = intramuscularly twice daily for 90 days

Sequence of Galectin-3 (P17931 whole entry): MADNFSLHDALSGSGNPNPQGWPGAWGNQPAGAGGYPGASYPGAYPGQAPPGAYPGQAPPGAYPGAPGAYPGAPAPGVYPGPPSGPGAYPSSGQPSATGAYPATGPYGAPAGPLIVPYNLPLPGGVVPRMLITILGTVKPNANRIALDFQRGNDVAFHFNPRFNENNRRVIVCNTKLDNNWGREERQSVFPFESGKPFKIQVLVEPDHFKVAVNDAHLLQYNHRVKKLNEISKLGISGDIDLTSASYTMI
T1 sequence (P17931 108-250): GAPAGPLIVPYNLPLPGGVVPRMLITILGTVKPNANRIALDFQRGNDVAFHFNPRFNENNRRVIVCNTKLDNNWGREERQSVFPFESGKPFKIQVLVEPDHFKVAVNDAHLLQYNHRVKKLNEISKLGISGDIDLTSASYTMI

## galectin-3: intact wild-type galectin-3, chimera type β-galactoside binding lectin (SEQ ID NO. 3)
[1]; Transwell chambers
  apically bound radiolabeled galectin-3 endocytosed: more than 90%
[1]; after 120 min
  galectin-3 transcytosed: 20%

## N-terminally truncated galectin-3: recombinant human galectin-3 truncated by collagenase digestion; 143 amino acid polypeptide beginning with Gly-108 (SEQ ID NO. 1)
[2]
  pharmacokinetic elimination half-life: 4.56 h
[3]; end of treatment period, P=0.009
  mean primary tumor volume less than the controls: 61%
[3]; end of treatment period, P=0.031
  number of treated animals with primary tumors that metastasized, less than controls: 3 fold
[3]; [8]
  mean tumor volumes compared with control mice: statistically significantly less
  mean tumor weights compared with control mice: statistically significantly less
  mice with lymph node metastases compared with control group: fewer numbers of mice exhibited lymph node metastases
[4]
  maximum tolerated dose: greater than 125 mg/kg

## N.N.[Cl][Pt][Cl] [free cisplatin, cisplatin]
[5]
  activity compared to the other nanocapsule formulations: greatest activity

## Galβ1→4(Fucα1→3)GlcNAc [Galβ1→4(Fucα1→3)GlcNAc (LeX)]
[6]
  Relative Carbohydrate Affinities, Galectin-3: <0.02

## Galβ1→3GlcNAc
[6]
  Relative Carbohydrate Affinities, Galectin-3: 6.3

## (LacNAc)2
[6]
  Relative Carbohydrate Affinities, Galectin-3: 20*
[7]
  Relative Carbohydrate Affinities, Galectin-3C: 54

## CO[C@H]1O[C@H](CO)[C@H](O)[C@H](O[C@H]2O[C@H](CO)[C@H](O)[C@H](O)[C@H]2O)[C@H]1O [Galα1→3GalαOme]
[6]
  Relative Carbohydrate Affinities, Galectin-3: 0.2

## Galβ1→4GlcNAc [Galβ1→4GlcNAc (LacNAc)]
[6]
  Relative Carbohydrate Affinities, Galectin-3: 11.3

## (LacNAc)5
[6]
  Relative Carbohydrate Affinities, Galectin-3: 137
[7]
  Relative Carbohydrate Affinities, Galectin-3C: 60.5
